Sequences and labels used below:
B1: rhANGPTL8: recombinant human ANGPTL8 (9983-AN) from R&D Systems (protein, UniProt Q6UXH0 22-198, looked up)
Angiopoietin-like protein 8: APMGGPELAQHEELTLLFHGTLQLGQALNGVYRTTEGRLTKARNSLGLYGRTIELLGQEVSRGRDAAQELRASLLETQMEEDILQLQAEATAEVLGEVAQAQKVLRDSVQRLEVQLRSAWLGPAYREFEVLKAHADKQSHILWALTGHVQRQRREMVAQQHRLRQIQERLHTAALPA
B2: rhANGPTL3: recombinant human ANGPTL3 (3829-AN) from R&D Systems (protein, UniProt Q9Y5C1 17-460, looked up)
Angiopoietin-related protein 3: SRIDQDNSSFDSLSPEPKSRFAMLDDVKILANGLLQLGHGLKDFVHKTKGQINDIFQKLNIFDQSFYDLSLQTSEIKEEEKELRRTTYKLQVKNEEVKNMSLELNSKLESLLEEKILLQQKVKYLEEQLTNLIQNQPETPEHPEVTSLKTFVEKQDNSIKDLLQTVEDQYKQLNQQHSQIKEIENQLRRTSIQEPTEISLSSKPRAPRTTPFLQLNEIRNVKHDGIPAECTTIYNRGEHTSGMYAIRPSNSQVFHVYCDVISGSPWTLIQHRIDGSQNFNETWENYKYGFGRLDGEFWLGLEKIYSIVKQSNYVLRIELEDWKDNKHYIEYSFYLGNHETNYTLHLVAITGNVPNAIPENKDLVFSTWDHKAKGHFNCPEGYSGGWWWHDECGENNLNGKYNKPRAKSKPERRRGLSWKSQNGRLYSIKSTKMLIHPTDSESFE

The first assay concerns HDMECs infected with Nm 2C4.3. Description: Integrity of HDMEC monolayers infected with N. meningitidis (VE-cadherin at intercellular junctions, immunofluorescence). In kind it is cell-based, human. Conditions: 1 μg/mL added 30 min after initiation of Nm infection, 2 h 30. The procedure:
FIG. 1. Exogenous ANGPTL4 exerts protective effects on dermal microvascular endothelial cells infected by N. meningitidis. A. HDMECs were infected with Nm 2C4.3 for 30 min and treated with 1 μg/mL of recombinant human ANGPTL4 for 2 h 30. Cells were fixed and stained for cellular actin, VE-cadherin and DAPI and analyzed by fluorescent microscopy. Quantifications of VE-cadherin enrichment at intercellular junctions and of intercellular spaces area were performed on 30 fields with Image J software. Kruskal-Wallis test ** P<0.001; P<0.0001. B. HDMEC were either uninfected or infected with N. meningitidis 2C4.3 for 30 min and treated with 1 μg mL−1 of recombinant human ANGPTL4, its N-terminal portion (nANGPTL4) or its C-terminal portion (cANGPTL4) for 2 h 30. Caspase-3/7 reagent was added to detect apoptosis in real time over 9 h using the IncuCyte® Live-Cell Analysis System
FIG. 2: Vascular protection is conferred by the N-terminal part of ANGPTL4. A, Schematic representation of ANGPTL4 structure. ANGPTL4 contains a N-terminal portion (nANGPTL4, aa 26-164) linked to a C-terminal portion (cANGPTL4, aa 164-406) by a cleavable linker. nANGPTL4 contains a highly conserved lipoprotein lipase (LPL) binding domain (aa 44-55), two cysteines on position 76 and 80 involved in protein oligomerization and a coiled-coil domain (aa 100-143). The C-terminal portion encodes a fibrinogen-like domain. B, HDMECs were infected with Nm 2C4.3 for 30 min and treated with 1 μg/mL of recombinant human ANGPTL4, nANGPTL4 or cANGPTL4 for 2 h 30. Cells were fixed and stained for cellular actin, VE-cadherin and DAPI and analyzed by fluorescent microscopy. B. Quantifications of VE-cadherin enrichment at intercellular junctions and of intercellular spaces area were performed on 30 fields with Image J software. Kruskal-Wallis test ** P<0.001, *** P<0.0001 of four independent experiments performed in triplicate.
FIG. 3: Vascular protection is conferred by a novel binding motif (aa 66-80) present in the N-terminal part of ANGPTL4. A, the indicated peptides were derived from nANGPTL4. B, HDMECs were infected with Nm 2C4.3 for 30 min and treated with 1 μg/mL of each peptides. Quantifications of VE-cadherin enrichment at intercellular junctions was performed on 30 fields with Image J software.
FIG. 4: Vascular protection is conferred by interaction of nANGPTL4 with Syndecan-4. A, HDMECs were infected with Nm 2C4.3 for 30 min and treated with 1 μg/mL of recombinant human ANGPTL4, nANGPTL4 or cANGPTL4 in the absence or in the presence of anti-SDC4 antibody for 2 h 30. Cells were fixed and stained for cellular actin, VE-cadherin and DAPI and analysed by fluorescent microscopy. Quantifications of VE-cadherin enrichment at intercellular junctions and of intercellular spaces area were performed on 30 fields with Image J software. Kruskal-Wallis test ** P<0.001, **** P<0.00001, ns1 P=0.2172; ns2 P>0.999 of four independent experiments performed in triplicate. B, HDMECs were transfected with small interfering RNA (siRNA) against SDC4 or non-targeting siRNA controls for 48 h, infected with Nm 2C4.3 for 30 min and treated with 1 μg/mL of recombinant human ANGPTL4, for 2 h 30. Quantifications of VE-cadherin enrichment at intercellular junctions and of intercellular spaces area were performed on 30 fields with Image J software. Kruskal-Wallis test ** P<0.001, *** P<0.0001, of two independent experiments performed in triplicate.
The day of infection, a suspension of the bacteria from an overnight culture on GCB agar plate was adjusted to OD600=0.05 and incubated for 2 h at 37° C. in a pre-warmed cell culture medium. Cells were infected with bacteria at a multiplicity of infection (MOI) of 100 bacteria per cell (OD=0.1) for 30 minutes, washed twice to remove non-adherent bacteria and infection was allowed to proceed for various periods of time. Cells were then washed and fixed in 4% paraformaldehyde for immunofluorescence analysis. […]
LSALERRLSA (Peptide P8): the “protective effect on monolayer integrity (adherens junctions, cell detachment) of infected HDMECs” value (“protective effect on monolayer integrity” below) is “no effect”.
LSALERRLSACGS [Peptide P12]: the “protective effect on monolayer integrity” value is recorded as “inhibits infection-induced damages”.
As for “PEVLHSLQTQLKAQNSRIQQLFHKVAQQQRHLEKQHLRIQHLQSQFGLLD (Peptide P2)”, the “protective effect on monolayer integrity” value was “no significant effect”.
On the same count and under the same terms, the same measure for QLSALERRLSACGSAC (Peptide P6): “completely inhibited infection-induced damages”; for REHAERTRSQLSALERRL (Peptide P5): “no effect”; for “REHAERTRSQLSALERRLSACGSACQGT (Peptide P4)”: “as efficient as P1 in providing protection”.
Consider RTRSQLSALERRLSA (Peptide P7), for which the “protective effect on monolayer integrity” value is reported as “no effect”.
For SALERRLSACGSAC [Peptide P13], the “protective effect on monolayer integrity” value was “inhibits infection-induced damages”.
With WDEMNVLAHGLLQLGQGL (Peptide P3), the “protective effect on monolayer integrity” value is “no protective effects”.
Turning to “WDEMNVLAHGLLQLGQGLREHAERTRSQLSALERRLSAAGSAAQGT (Peptide P1 C76A, C80A) [Peptide P1 C76A/C80A]”, the “protective effect on monolayer integrity” value was “efficiently provided cytoprotection to infection-induced damages”.
Consider B1, for which the “protective effect on monolayer integrity” value is reported as “no protective effect”.
Consider B2, for which the “protective effect on monolayer integrity” value was “no protective effect”.

The test system of the next assay is SCID mice grafted with human skin infected with Nm 2C4.3. Briefly: Vascular lesions in SCID mice grafted with human skin infected with N. meningitidis (4 h). In kind it is in vivo. Particulars: data not shown. The procedure: FIG. 7: ANGPTL4 reduces signs of thrombosis, vascular injury and inflammation. A-D, SCID mice grafted with human skins were infected intravenously with Nm 2C4.3 wild-type strain (5×10^6 bacteria) or left uninfected. A period of 30 min or 2 h after bacterial challenge, mice received 1 μg of recombinant human ANGPTL4, nANGPTL4 or cANGPTL4 intravenously or the vehicle as a control. Mice were killed at 4 h post-challenge. This experiment was performed twice with n=3 or 4 mice per group, using skin from two different donors. A, A schematic representation of the protocols used in vivo. B, Control bacteraemia 4 h post-infection (mean±s.e.m.). C, Bacterial colonization within the skin grafts as assessed by immunofluorescence analysis was quantified using ImageJ software as the ratio between bacterial surface colonization and the lumen surface of the vessels. A total of 30-50 vessels per mouse were analysed. Error bars show mean±s.e.m. D, Thrombus formation within the skin grafts was assessed by immunofluorescence analysis and quantified using ImageJ as the ratio between thrombus surfaces and the lumen surface of the vessels. A total of 30-50 vessels per mouse were analysed. Error bars show mean±s.e.m.; *** P<0.0001; ns P=0.0541 two-tailed Student's t-test.
Six-week-old CB17/Icr-Prkdcscid female mice were obtained from Janvier Labs. Human skin tissues were obtained from adult patients undergoing plastic surgery in the Service de Chirurgie Plastique et Reconstructive of the Groupe Hospitalier Saint-Joseph. […] Experimental procedures were performed as previously described in accordance with the guidelines of the Institut National de la Santé et de la Recherche Médicale and conformed to the European ethical legislation (Directive 2010/63/EU). The experimental protocol was approved by the Animal Experimentation Ethics Committee of the Université Paris Descartes (consent forms CEEA34.O.J.L.039.12 and 2018012515596498). […]. A skin flap was created and a full thickness human skin graft was placed onto the wound bed. The transplants were held in place with 6-0 non-absorbable monofilament suture materials, and the flap was then sutured above the transplant. Grafted mice were infected 4-6 weeks after human skin transplantation. N. meningitidis was grown overnight at 37° C. on GCB agar plates prepared without iron and supplemented with 15 μM deferoxamine (Desferal, Novartis). Bacterial colonies were harvested and cultured in RPMI media with 1% BSA medium and 0.06 μM deferoxamine with gentle agitation to reach the exponential phase of growth. Bacteria were then resuspended in physiological saline solution. Mice were infected intravenously with 200 μl (5×10^6 bacteria) of this bacterial suspension. A 10 mg dose of human holotransferrin (R&D Systems) was administered intraperitoneally just before infection. Mice were killed at 4 h after infection. Human skin grafts were carefully collected using a sterile cutter. The tissue was washed in PBS and fixed overnight at 4° C. in 4% paraformaldehyde in phosphate buffer. After washing in phosphate buffer, the specimens were embedded in OCT medium and then frozen at −80° C. Sections of the dermis (7 μm thick) were immobilized on Superfrost Plus microscope slides and subjected to immunofluorescence analysis. Sections were incubated with the primary antibodies for 1 h in PBS/3% BSA then DAPI was added to Alexa-conjugated secondary antibodies for 1 h. After additional washing, coverslips were mounted in glycergel (Dako) and were further analysed using a slide scanner (Lamina, Perkin Elmer). Analysis of the images was performed using ImageJ software (NIH). […]
As for B1, the “protective effects on vascular alteration, thrombosis or the release of inflammatory markers” value is reported as “no protective effects”.
As to B2, the “protective effects on vascular alteration, thrombosis or the release of inflammatory markers” value was “no protective effects”.

The record behind these values is patent US20250163116A1, “NEW METHOD TO TREAT INFECTIOUS DISEASES” (INSERM (INSTITUT NATIONAL DE LA SANTÉ ET DE LA RECHERCHE …, priority 2022, published 2025).
